{
  "source": "ChEMBL document CHEMBL6083204",
  "about": "“Synthesis of a celastrol derivative as a cancer stem cell inhibitor through regulation of the STAT3 pathway for treatment of ovarian cancer” (RSC Med Chem, 2024)",
  "key": {"A2780 [1]": {"tested_on": "A2780", "assay": "Induction of apoptosis in human A2780 cells assessed as late apoptotic cells at 0.4 uM incubated for 24 hrs by Annexin V-FITC/7-AAD staining based flow cytometry (reference value: 2.1 %)", "type": "functional"}, "A2780 [2]": {"tested_on": "A2780", "assay": "Induction of apoptosis in human A2780 cells assessed as viable cells at 0.2 uM incubated for 24 hrs by Annexin V-FITC/7-AAD staining based flow cytometry (reference value: 95 %)", "type": "functional", "conditions": "read-out: Activity"}, "A2780 [3]": {"tested_on": "A2780", "assay": "Induction of cell cycle arrest in human A2780 cells assessed as reduction of Cyclin D1 expression at 0.4 uM incubated for 24 hrs by flow cytometry (reference value: 92.5 %)", "type": "functional", "design": "scale not given: the % may be the effect or the level left"}, "A2780 [4]": {"tested_on": "A2780", "assay": "Induction of cell cycle arrest in human A2780 cells assessed as reduction of CDK4 expression at 0.8 uM incubated for 24 hrs by flow cytometry (reference value: 93.6 %)", "type": "functional", "design": "scale not given: the % may be the effect or the level left"}, "SK-OV-3 [5]": {"tested_on": "SK-OV-3", "assay": "Induction of apoptosis in human SK-OV-3 cells assessed as late apoptotic cells at 0.4 uM incubated for 24 hrs by Annexin V-FITC/7-AAD staining based flow cytometry (reference value: 3.7 %)", "type": "functional"}, "A2780 [6]": {"tested_on": "A2780", "assay": "Induction of apoptosis in human A2780 cells assessed as increase in caspase-3 activity at 0.4 uM incubated for 24 hrs by flow cytometry (reference value: 1.5 %)", "type": "functional"}, "[7]": {"assay": "Toxicity in BALB/c mouse xenografted with human SK-OV-3 cells assessed as behavioral change at 2 to 5 mg/kg,ip administrated for 21 consecutive days", "type": "organism-based", "conditions": "in vivo, dose 2-5 mg/kg"}, "[8]": {"target": "Signal transducer and activator of transcription 3 (Homo sapiens) (UniProt P40763)", "sequence (P40763 whole entry)": "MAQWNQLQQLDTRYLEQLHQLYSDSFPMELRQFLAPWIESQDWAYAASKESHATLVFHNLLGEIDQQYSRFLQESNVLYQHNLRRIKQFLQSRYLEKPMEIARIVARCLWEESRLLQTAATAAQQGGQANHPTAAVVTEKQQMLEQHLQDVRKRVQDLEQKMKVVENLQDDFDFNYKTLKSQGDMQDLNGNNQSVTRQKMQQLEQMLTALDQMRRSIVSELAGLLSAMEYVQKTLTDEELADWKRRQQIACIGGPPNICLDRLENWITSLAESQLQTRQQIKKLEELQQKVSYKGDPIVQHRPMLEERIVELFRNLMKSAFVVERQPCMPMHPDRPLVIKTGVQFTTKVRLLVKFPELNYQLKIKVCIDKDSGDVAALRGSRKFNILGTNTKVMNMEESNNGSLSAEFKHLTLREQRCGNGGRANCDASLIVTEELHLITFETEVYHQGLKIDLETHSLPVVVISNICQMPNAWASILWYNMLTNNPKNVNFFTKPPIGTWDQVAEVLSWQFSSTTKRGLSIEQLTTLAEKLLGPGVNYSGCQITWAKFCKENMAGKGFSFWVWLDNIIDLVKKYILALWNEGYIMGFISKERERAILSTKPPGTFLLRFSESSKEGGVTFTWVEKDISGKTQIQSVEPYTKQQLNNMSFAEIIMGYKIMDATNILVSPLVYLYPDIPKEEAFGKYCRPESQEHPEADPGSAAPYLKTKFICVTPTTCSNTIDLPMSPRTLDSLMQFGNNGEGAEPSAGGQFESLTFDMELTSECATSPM", "assay": "Inhibition of STAT3 in human SK-OV-3 cells assessed as downregulation of STAT3 expression in nuclei at 0.2 uM incubated for 24 hrs by Hoechst33342 staining based immunofluorescence assay", "type": "cell-based"}, "SK-OV-3 [9]": {"tested_on": "SK-OV-3", "assay": "Antiproliferative activity against human SK-OV-3 cells assessed as decrease in ALDH positive cells at 0.2 uM incubated for 24 hrs by ALDEFLUOR staining based flow cytometry (reference value: 3.83 %)", "type": "functional", "design": "scale not given: the % may be the effect or the level left"}, "[10]": {"target": "Tyrosine-protein kinase JAK2 (Homo sapiens) (UniProt O60674)", "sequence (O60674 whole entry)": "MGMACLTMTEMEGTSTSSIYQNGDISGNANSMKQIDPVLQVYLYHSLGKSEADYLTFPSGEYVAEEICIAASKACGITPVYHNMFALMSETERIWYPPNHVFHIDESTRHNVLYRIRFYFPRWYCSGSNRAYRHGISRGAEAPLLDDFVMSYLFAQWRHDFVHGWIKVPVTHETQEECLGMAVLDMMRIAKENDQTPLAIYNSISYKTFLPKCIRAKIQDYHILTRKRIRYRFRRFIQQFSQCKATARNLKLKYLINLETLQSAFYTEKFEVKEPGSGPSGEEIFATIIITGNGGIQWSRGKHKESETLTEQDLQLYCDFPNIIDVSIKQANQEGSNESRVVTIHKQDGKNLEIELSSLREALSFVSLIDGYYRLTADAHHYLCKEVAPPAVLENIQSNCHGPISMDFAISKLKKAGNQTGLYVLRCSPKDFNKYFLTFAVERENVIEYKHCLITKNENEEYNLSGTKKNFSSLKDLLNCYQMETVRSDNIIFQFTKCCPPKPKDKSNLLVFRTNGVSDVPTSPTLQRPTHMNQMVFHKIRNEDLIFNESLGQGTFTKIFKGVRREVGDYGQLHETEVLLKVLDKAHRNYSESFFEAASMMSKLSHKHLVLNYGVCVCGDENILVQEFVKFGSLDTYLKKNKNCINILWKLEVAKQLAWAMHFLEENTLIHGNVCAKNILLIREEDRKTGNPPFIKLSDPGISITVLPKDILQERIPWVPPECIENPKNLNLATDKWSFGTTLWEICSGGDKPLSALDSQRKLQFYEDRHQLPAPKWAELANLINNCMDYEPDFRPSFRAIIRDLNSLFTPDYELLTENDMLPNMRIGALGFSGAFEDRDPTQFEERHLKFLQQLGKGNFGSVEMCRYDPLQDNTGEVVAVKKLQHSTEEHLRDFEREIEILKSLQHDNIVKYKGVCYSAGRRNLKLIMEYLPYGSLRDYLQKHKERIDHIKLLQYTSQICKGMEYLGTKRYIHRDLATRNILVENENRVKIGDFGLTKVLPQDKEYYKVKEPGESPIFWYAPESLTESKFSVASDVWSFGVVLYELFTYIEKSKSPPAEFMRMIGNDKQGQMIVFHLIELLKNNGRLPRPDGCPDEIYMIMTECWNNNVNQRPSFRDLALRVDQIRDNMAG", "assay": "Inhibition of JAK2 in human SK-OV-3 cells assessed as downregulation of JAK2 phosphorylation at 0.1 to 0.4 uM incubated for 24 hrs by Western blotting analysis", "type": "cell-based", "conditions": "dose 0.1-0.4 µM"}, "A2780 [11]": {"tested_on": "A2780", "assay": "Inhibition of human A2780 cells spheroid formation assessed as reduction in spheroid number at 0.1 to 0.4 uM incubated for 10 days by inverted microscopic analysis", "type": "functional, cell-based", "conditions": "dose 0.1-0.4 µM, time 10.0 day"}, "[12]": {"target": "Signal transducer and activator of transcription 3 (Homo sapiens) (UniProt P40763)", "assay": "Inhibition of STAT3 in human SK-OV-3 cells assessed as downregulation of STAT3 phosphorylation at Tyr705 residue incubated for 24 hrs by Western blotting analysis", "type": "cell-based"}, "SK-OV-3 [13]": {"tested_on": "SK-OV-3", "assay": "Induction of cell cycle arrest in human SK-OV-3 cells assessed as accumulation of cells at S phase at 0.4 uM incubated for 24 hrs by BrdU staining based flow cytometry (reference value: 33.6 %)", "type": "functional"}, "A2780 [14]": {"tested_on": "A2780", "assay": "Inhibition of cell migration in human A2780 cells assessed as reduction in number of migrated cells at 0.1 to 0.4 uM incubated for 24 hrs by crystal violet staining based transwell assay", "type": "functional", "conditions": "dose 0.1-0.4 µM"}, "OVCAR-3": {"tested_on": "OVCAR-3", "assay": "Antiproliferative activity against human OVCAR-3 cells assessed as inhibition of cell growth incubated for 72 hrs by MTT assay", "type": "functional, cell-based", "conditions": "OVCAR-3, 72 h"}, "SK-OV-3 [15]": {"tested_on": "SK-OV-3", "assay": "Antitumor activity against human SK-OV-3 cells xenografted in BALB/c mouse assessed as appearance of shrunken nucleus in tumor tissue at 2 to 5 mg/kg,ip administrated for 21 consecutive days by hematoxylin and eosin staining based assay", "type": "functional, organism-based", "conditions": "dose 2-5 mg/kg"}, "SK-OV-3 [16]": {"tested_on": "SK-OV-3", "assay": "Antiproliferative activity against human SK-OV-3 cells assessed as decrease in CD44 positive CD24 negative cells expression at 0.2 uM incubated for 24 hrs by FITC staining based flow cytometry (reference value: 85.6 %)", "type": "functional", "design": "scale not given: the % may be the effect or the level left"}, "Mitochondrial membrane [17]": {"tested_on": "Mitochondrial membrane", "assay": "Induction of mitochondrial membrane potential loss in human SK-OV-3 cells at 0.2 uM incubated for 24 hrs by JC-1 staining based flow cytometry (reference value: 73.6 %)"}, "[18]": {"target": "Signal transducer and activator of transcription 3 (Homo sapiens) (UniProt P40763)", "assay": "Inhibition of STAT3 in human SK-OV-3 cells assessed as downregulation of cytoplasmic STAT3 expression at 0.2 uM incubated for 24 hrs by Hoechst33342 staining based immunofluorescence assay", "type": "cell-based"}, "A2780 [19]": {"tested_on": "A2780", "assay": "Antiproliferative activity against human A2780 cells assessed as decrease in ALDH positive cells at 0.2 uM incubated for 24 hrs by ALDEFLUOR staining based flow cytometry (reference value: 32.5 %)", "type": "functional", "design": "scale not given: the % may be the effect or the level left"}, "A2780 [20]": {"tested_on": "A2780", "assay": "Inhibition of cell invasion in human A2780 cells incubated for 24 hrs by crystal violet staining based transwell assay", "type": "functional"}, "Mitochondrial membrane [21]": {"tested_on": "Mitochondrial membrane", "assay": "Induction of mitochondrial membrane potential loss in human A2780 cells at 0.2 uM incubated for 24 hrs by JC-1 staining based flow cytometry (reference value: 81 %)"}, "SK-OV-3 [22]": {"tested_on": "SK-OV-3", "assay": "Antiproliferative activity against human SK-OV-3 cells assessed as inhibition of cell growth incubated for 72 hrs by MTT assay", "type": "functional, cell-based", "conditions": "SK-OV-3, 72 h"}, "[23]": {"assay": "Toxicity in BALB/c mouse xenografted with human SK-OV-3 cells assessed as pathological change in liver at 2 to 5 mg/kg,ip administrated for 21 consecutive days by hematoxylin and eosin staining based assay", "type": "organism-based", "conditions": "in vivo, dose 2-5 mg/kg"}, "Mitochondrial membrane [24]": {"tested_on": "Mitochondrial membrane", "assay": "Induction of mitochondrial membrane potential loss in human SK-OV-3 cells at 0.1 uM incubated for 24 hrs by JC-1 staining based flow cytometry (reference value: 73.6 %)"}, "SK-OV-3 [25]": {"tested_on": "SK-OV-3", "assay": "Antitumor activity against human SK-OV-3 cells xenografted in BALB/c mouse assessed as reduction in number of tumor cells at 2 to 5 mg/kg,ip administrated for 21 consecutive days by hematoxylin and eosin staining based assay", "type": "functional, organism-based", "conditions": "dose 2-5 mg/kg"}, "A2780 [26]": {"tested_on": "A2780", "assay": "Induction of cell cycle arrest in human A2780 cells assessed as accumulation of cells at G0/G1 phase at 0.8 uM incubated for 24 hrs by BrdU staining based flow cytometry (reference value: 42.4 %)", "type": "functional"}, "[27]": {"assay": "Toxicity in BALB/c mouse xenografted with human SK-OV-3 cells assessed as pathological change in heart at 2 to 5 mg/kg,ip administrated for 21 consecutive days by hematoxylin and eosin staining based assay", "type": "organism-based", "conditions": "in vivo, dose 2-5 mg/kg"}, "[28]": {"target": "Signal transducer and activator of transcription 3 (Homo sapiens) (UniProt P40763)", "assay": "Inhibition of STAT3 in human A2780 cells assessed as downregulation of cytoplasmic STAT3 expression at 0.2 uM incubated for 24 hrs by Hoechst33342 staining based immunofluorescence assay", "type": "cell-based"}, "SK-OV-3 [29]": {"tested_on": "SK-OV-3", "assay": "Induction of cell cycle arrest in human SK-OV-3 cells assessed as reduction of Cyclin D1 expression at 0.4 uM incubated for 24 hrs by flow cytometry (reference value: 93.8 %)", "type": "functional", "design": "scale not given: the % may be the effect or the level left"}, "A2780 [30]": {"tested_on": "A2780", "assay": "Induction of cell cycle arrest in human A2780 cells assessed as accumulation of cells at G0/G1 phase at 0.2 uM incubated for 24 hrs by BrdU staining based flow cytometry (reference value: 42.4 %)", "type": "functional"}, "SK-OV-3 [31]": {"tested_on": "SK-OV-3", "assay": "Inhibition of cell migration in human SK-OV-3 cells assessed as downregulation of phosphorylated FAK expression at 0.1 to 0.4 uM incubated for 24 hrs by Western blotting analysis", "type": "functional, cell-based", "conditions": "dose 0.1-0.4 µM"}},
  "note": "Active and inactive are the calls of the source. No cut-off for these calls is given here.",
  "data": [
    {"molecule": "CC1=C(O)C(=O)C=C2C1=CC=C1[C@@]2(C)CC[C@@]2(C)[C@@H]3C[C@](C)(C(=O)N4CCNCC4)CC[C@]3(C)CC[C@]12C", "values": [
      {"measurement": "Activity", "setting": "A2780 [1]", "result": 15, "unit": "%"},
      {"measurement": "viability at 0.2 µM", "setting": "A2780 [2]", "result": 89.3, "unit": "%"},
      {"measurement": "Activity", "setting": "A2780 [3]", "result": 67.7, "unit": "%"},
      {"measurement": "Activity", "setting": "A2780 [4]", "result": 18.7, "unit": "%"},
      {"measurement": "Activity", "setting": "SK-OV-3 [5]", "result": 11.5, "unit": "%"},
      {"measurement": "Activity", "setting": "A2780 [6]", "result": 24.1, "unit": "%"},
      {"measurement": "Activity", "setting": "[7]", "result": "Non-toxic"},
      {"measurement": "inhibition", "setting": "[8]", "result": "Active"},
      {"measurement": "Activity", "setting": "SK-OV-3 [9]", "result": 2.07, "unit": "%"},
      {"measurement": "inhibition", "setting": "[10]", "result": "Active"},
      {"measurement": "inhibition", "setting": "A2780 [11]", "result": "Active"},
      {"measurement": "inhibition", "setting": "[12]", "result": "Dose-dependent-effect"},
      {"measurement": "Activity", "setting": "SK-OV-3 [13]", "result": 42.9, "unit": "%"},
      {"measurement": "inhibition", "setting": "A2780 [14]", "result": "Active"},
      {"measurement": "IC50", "setting": "OVCAR-3", "result": 250, "unit": "nM"},
      {"measurement": "Activity", "setting": "SK-OV-3 [15]", "result": "Active"},
      {"measurement": "Activity", "setting": "SK-OV-3 [16]", "result": 64.53, "unit": "%"},
      {"measurement": "Activity", "setting": "Mitochondrial membrane [17]", "result": 49.6, "unit": "%"},
      {"measurement": "inhibition", "setting": "[18]", "result": "Active; Showed Mild Inhibition Activity"},
      {"measurement": "Activity", "setting": "A2780 [19]", "result": 3.83, "unit": "%"},
      {"measurement": "inhibition", "setting": "A2780 [20]", "result": "Dose-dependent-effect"},
      {"measurement": "Activity", "setting": "Mitochondrial membrane [21]", "result": 53.2, "unit": "%"},
      {"measurement": "IC50", "setting": "SK-OV-3 [22]", "result": 210, "unit": "nM"},
      {"measurement": "Activity", "setting": "[23]", "result": "Non-toxic"},
      {"measurement": "Activity", "setting": "Mitochondrial membrane [24]", "result": 70.7, "unit": "%"},
      {"measurement": "Activity", "setting": "SK-OV-3 [25]", "result": "Active"},
      {"measurement": "Activity", "setting": "A2780 [26]", "result": 70.5, "unit": "%"},
      {"measurement": "Activity", "setting": "[27]", "result": "Non-toxic"},
      {"measurement": "inhibition", "setting": "[28]", "result": "Active; Showed Mild Inhibition Activity"},
      {"measurement": "Activity", "setting": "SK-OV-3 [29]", "result": 68.2, "unit": "%"},
      {"measurement": "Activity", "setting": "A2780 [30]", "result": 53.7, "unit": "%"},
      {"measurement": "inhibition", "setting": "SK-OV-3 [31]", "result": "Active"}
    ]}
  ]
}
